Assay results published in US10858386B2, “Drug compound and purification methods thereof” (Otsuka Pharmaceutical Co., Ltd., priority 2017, dated 2020).
Where “and” joins values, the source holds several entries; their conditions need not be identical. Equal entries are not always repeated.

How the values were obtained:
Type in all cases: physicochemical
[1] = Reconstitution time of the lyophilized product in the diluent (65% propylene glycol, 25% glycerin, 10% ethanol); conditions: 1 mL diluent
Excerpt: (§1) The requirements of a constituted solution are that there is no visible insoluble material and the solution is no less clear than the diluent after a predetermined amount of time. The volume for reconstitution can return the product to the same volume and concentration as the bulk solution used for filling or may be the volume intended for patient delivery in a clinical setting.
For reconstitution, a specified volume of a diluent can be drawn up into a syringe. The diluent can then be extruded into the center of the dried cake of the product and the timer started. The product is then inspected at approximately 5 second intervals to determine the time material dissolved.
Reconstitution was performed by extruding 1 mL of diluent into each vial using a vial adapter or syringe and allowing the vials to sit undisturbed until clear.
(§2) Following lyophilization, the lyophilized samples were analysed for purity (% purity by HPLC), DMSO residual content, and residual moisture. The samples were reconstituted by dissolving them in the non-aqueous solvent system described in TABLE 11 below and the reconstitution time and appearance of the reconstituted formulations were analysed.

[2] = Turbidity of pooled reconstituted samples (Hach 2100AN turbidimeter, NTU)
Excerpt: Turbidity monitors the transmission of light through a liquid sample to determine whether the sample is clear or the degree of opalescence in the sample. The analysis can be performed using a Hach Model 2100AN Laboratory Turbidimeter. The Hach Model 2100AN is a ratio turbidimeter that uses the ratio of transmitted to scattered light to reduce error in the measurement caused by colored solutions.
Prior to each use, the Turbidimeter is calibrated with a Hach StabCal® Calibration Kit and then checked using Hach Gelex® Secondary Turbidity Standards. Sample cells are cleaned and oiled to reduce interference by dirt or imperfections in the glass. Sample cell indexing matches cells with similar interference for sample comparison.
Reconstituted samples can be pooled to achieve at least 2.5 mL of sample, which is placed in the indexed sample cells for analysis. The turbidimeter measures the opalescence and returns a value in nephelometric turbidity units (NTU) ratio. This value was recorded by the instrument with a time and date stamp to track each sample.

[3] = Thermogravimetric analysis (TGA) weight loss of the lyophilized product
Excerpt: TGA can be used as a corroborative method for residual moisture determination where the change in weight is attributed to the evolution of volatile substances, such as water. In addition, TGA can be used to deter mine physico-chemical changes as the specimen begins to decompose at elevated temperatures.
TGA monitors the change in weight of a material as a function of temperature or time with heating. The analysis can be performed using a TA Instruments QSO per USP 891, Thermal Analysis. Test parameters and data analysis can conducted using TA Instruments Universal Analysis® software version 4.5A on a PC interface.
Solid material, with a weight of about 13 mg to about 19 mg, can be placed in an open ceramic sample pan. The sample is then heated from 25° C. to 400° C. using a warming rate of about 10° C. per minute to measure the weight loss across the temperature range. Nitrogen, NF is used to purge the sample continuously at a flow rate of 60 mL/minute. The instrument is calibrated at temperatures that span the range of high temperature analysis.
The lyophilized material is warmed and the sample weight can be monitored for any change. During warming, weight loss is correlated to the evolution of volatile components in the sample. Calculations identify the sample weight correlated to a temperature.

[4] = Appearance of the reconstituted solution
Experimental: as §1, §2

[5] = Example 8 Study E: low shelf temperature, low chamber pressure, 15 microns in secondary drying
[6] = Example 8 Study F: target parameters of TABLE 18
[7] = Example 8 Study E, 3 pooled samples per lot

Average Recon Time (min) [1, 5]	Average Recon Time (min) [1, 6]	Turbidity (NTU) [2, 7]	Weight Loss (% w/w), Total (TGA) ([3]; Example 8 Study F)	Weight Loss (% w/w), Total (TGA) ([3]; Example 8 Study G, one vial)	Average Recon Time [1, 6]	Turbidity (NTU) ([2]; Example 8 Study G, 3 pooled samples)	Appearance of reconstituted solution ([4]; Example 7, lyophilization procedure of TABLE 16)	Appearance of reconstituted solution ([4]; Example 8 Study A)	Appearance of reconstituted solution ([4]; Example 8 Study B)	Appearance of reconstituted solution ([4]; Example 8 Study C)	Appearance of reconstituted solution ([4]; Example 8 Study D)	Appearance of reconstituted solution ([4]; Example 8 Study E)	Appearance of reconstituted solution ([4]; Example 8 Study F)	Appearance of reconstituted solution ([4]; Example 8 Study G)	Appearance of reconstituted solution ([4]; Example 8 Study H)	Appearance of reconstituted solution ([4]; Example 8 repeat of Study H)	TGA total weight loss ([3]; Example 2 full load, TABLE 6 cycle)	Weight Loss (% w/w), Total (TGA) ([3]; Example 8 Study B, vial 1 and 2)	TGA mass loss ([3]; Example 8 repeat of Study H, one vial)	Structure (SMILES)
Lot 1: 17 min	Lot 1: 17.3 min	0.799 NTU and 0.833 NTU and 0.756 NTU	Total: 18.93 % w/w	Total: 16.7 % w/w	–	–	–	–	–	–	–	–	–	–	–	–	–	–	–	Nc1ncn(C2CC(OP(=O)([O-])OCC3OC(n4cnc5c(=O)[nH]c(N)nc54)CC3O)C(CO)O2)c(=O)n1.[Na+] (stereo not drawn) [Lot 1]
Lot 2: 17 min	Lot 2: 18 min	0.795 NTU and 0.808 NTU and 0.867 NTU	Total: 19.82 % w/w	–	–	–	–	–	–	–	–	–	–	–	–	–	–	–	–	Nc1ncn(C2CC(OP(=O)([O-])OCC3OC(n4cnc5c(=O)[nH]c(N)nc54)CC3O)C(CO)O2)c(=O)n1.[Na+] (stereo not drawn) [Lot 2]
–	–	below 3 NTU	approximately 19 % w/w	approximately 17 % w/w	17 to 18 min	16.9 NTU and 16 NTU and 19 NTU	clear reconstituted solution	clear and colorless solutions	clear and colorless solutions	clear and colorless solutions	clear and colorless solutions	clear and colorless solutions	clear and colorless solutions	clear and colorless solutions	clear and colorless solutions	clear and colorless solutions	17%	17.35 % w/w and 18.07 % w/w	about 17 % w/w	Nc1ncn([C@H]2CC(OP(=O)(O)OC[C@H]3O[C@@H](n4cnc5c(=O)[nH]c(N)nc54)CC3O)[C@@H](CO)O2)c(=O)n1 (stereo partly drawn) [compound of Formula (1)]
